Measured values reported in US20230063321A1, “Methods for Treating Inflammatory Bowel Diseases with alpha4beta7 Integrin Antagonists” (Protagonist Therapeutics, Inc., priority 2020, published 2023).
Where “and” joins values, the source holds several entries; their conditions need not be identical. Identical values can stand only once. Numbered stars: 1 amine (or outer) side, 2 acyl side, 3 side chain; on linkers, the order of the positions; unused ones are H or OH. Bridge positions count the residues as written; N and C are the ends. Square brackets hold non-standard residues; d marks the D form. Peptide text beside a SMILES is read from it. I, II: the chains in the order shown. ξ: configuration not given here. Phe(4-tBu) = CC(C)(C)c1ccc(C[C@H](N)C(=O)O)cc1; Diglycolyl = O=C(COCC(=O)[*:2])[*:1]; NMeR = CN[C@@H](CCCNC(=N)N)C(=O)O; β3hE = N[C@@H](CCC(=O)O)CC(=O)O; Thr(3ξ) = CC(O)[C@H](N)C(=O)O; X1 = O=C(c1ccccc1C[*:2])[*:1]; Pen = CC(C)(S)[C@H](N)C(=O)O

What was measured:
[1] = molecular target: T1, α4β7 integrin on memory CD4+ T cells (Homo sapiens, UniProt P13612+P26010); assay: Study 1 blood α4β7 receptor occupancy and receptor expression; type: in vivo; conditions: for Average RE (%) / Average RO (%) / REmax (%) / ROmax (%) / Tmax for RE / Tmax for RO: Mean ± SD
T1 construct: the amount of α4β7 expression on the cell surface of circulating lymphocytes; endogenous in cells; host or cells: heparinized whole blood of healthy volunteers
T1 sequence (P13612 34-1032): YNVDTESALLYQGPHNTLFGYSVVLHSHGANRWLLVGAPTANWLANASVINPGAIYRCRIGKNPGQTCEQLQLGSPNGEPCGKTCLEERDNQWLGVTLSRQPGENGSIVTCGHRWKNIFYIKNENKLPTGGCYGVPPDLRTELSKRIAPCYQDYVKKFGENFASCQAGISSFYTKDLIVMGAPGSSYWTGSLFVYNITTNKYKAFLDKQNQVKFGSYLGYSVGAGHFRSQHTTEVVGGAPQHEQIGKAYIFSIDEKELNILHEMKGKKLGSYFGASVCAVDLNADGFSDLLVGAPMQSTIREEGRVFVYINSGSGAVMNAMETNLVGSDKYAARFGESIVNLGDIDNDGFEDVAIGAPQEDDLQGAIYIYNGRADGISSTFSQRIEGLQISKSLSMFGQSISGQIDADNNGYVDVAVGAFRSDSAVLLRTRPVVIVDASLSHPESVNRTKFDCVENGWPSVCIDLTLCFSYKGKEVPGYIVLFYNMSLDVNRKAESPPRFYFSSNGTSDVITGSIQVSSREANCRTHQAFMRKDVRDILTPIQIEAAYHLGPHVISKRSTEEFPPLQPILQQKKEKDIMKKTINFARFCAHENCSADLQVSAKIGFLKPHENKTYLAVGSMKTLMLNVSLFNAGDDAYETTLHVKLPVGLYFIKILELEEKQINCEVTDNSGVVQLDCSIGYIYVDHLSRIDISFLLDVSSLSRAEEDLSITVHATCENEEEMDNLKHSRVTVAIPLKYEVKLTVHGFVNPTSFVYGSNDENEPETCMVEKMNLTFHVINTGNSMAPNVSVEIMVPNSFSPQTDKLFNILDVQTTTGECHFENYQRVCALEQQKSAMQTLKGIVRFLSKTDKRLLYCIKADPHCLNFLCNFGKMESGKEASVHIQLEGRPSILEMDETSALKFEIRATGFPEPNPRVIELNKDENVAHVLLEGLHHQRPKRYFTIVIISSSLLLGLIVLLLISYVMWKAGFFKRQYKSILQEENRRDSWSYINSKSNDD
T1 sequence (P26010 20-798): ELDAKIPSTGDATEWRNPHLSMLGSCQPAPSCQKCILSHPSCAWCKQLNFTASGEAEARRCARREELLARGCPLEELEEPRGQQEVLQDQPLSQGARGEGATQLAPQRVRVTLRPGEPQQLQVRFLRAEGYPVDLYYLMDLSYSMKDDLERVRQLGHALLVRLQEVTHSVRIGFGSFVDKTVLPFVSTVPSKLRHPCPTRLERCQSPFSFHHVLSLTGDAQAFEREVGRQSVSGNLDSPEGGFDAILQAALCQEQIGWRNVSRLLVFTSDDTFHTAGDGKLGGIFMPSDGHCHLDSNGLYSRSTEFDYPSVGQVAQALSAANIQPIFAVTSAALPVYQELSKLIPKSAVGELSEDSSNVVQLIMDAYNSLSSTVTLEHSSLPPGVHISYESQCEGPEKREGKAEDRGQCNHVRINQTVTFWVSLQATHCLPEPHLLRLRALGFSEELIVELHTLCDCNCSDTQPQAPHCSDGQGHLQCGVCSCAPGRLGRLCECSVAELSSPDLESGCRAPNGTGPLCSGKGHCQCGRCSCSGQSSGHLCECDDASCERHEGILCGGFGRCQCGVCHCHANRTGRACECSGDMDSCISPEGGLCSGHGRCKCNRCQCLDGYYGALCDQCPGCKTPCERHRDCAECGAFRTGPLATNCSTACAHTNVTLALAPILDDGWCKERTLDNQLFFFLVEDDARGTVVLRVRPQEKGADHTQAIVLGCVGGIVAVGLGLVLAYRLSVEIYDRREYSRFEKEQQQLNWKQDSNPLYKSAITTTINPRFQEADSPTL
Description: After staining is completed, the samples are treated with a red blood cell lysis and fixation buffer, washed and acquired on a flow cytometer. To quantify receptor occupancy on α4β7 expressing memory CD4 T cells, the […] fluorescence intensity (MFI) of Alexa647-labelled peptide within the vedolizumab+ memory CD4+ T cells was used. Receptor occupancy was calculated according to the following formula: [Percent RO]=(1−([Unblocked]−[Blocked])/([Baseline Unblocked]−[Baseline Blocked]))×100.
Expression of α4β7 is defined by MFI of vedolizumab within the memory CD4+ T cells from the unblocked samples. Receptor expression (RE) was calculated as percent change of MFI from baseline for the vedolizumab stain.

[2] = Systemic absorption in animal studies; type: in vivo; conditions: oral
[3] = 300 mg Fasted once daily, Day 1
[4] = 300 mg Fasted once daily, Day 14
[5] = 1000 mg Fasted once daily, Day 1
[6] = 1000 mg Fasted once daily, Day 14
[7] = single dose 1400 mg, listed as COMPOUND A

Compound: CC(C)C[C@@H]1NC(=O)[C@H](C(C)O)NC(=O)[C@H](CC(=O)O)NC(=O)[C@H](CO)NC(=O)[C@H](CCCNC(=N)N)N(C)C(=O)c2ccccc2CSC(C)(C)[C@@H](C(=O)N[C@@H](Cc2ccc(C(C)(C)C)cc2)C(=O)N[C@@H](CCC(=O)O)CC(=O)N[C@H](CCCCNC(=O)COCC(=O)NCCCC[C@@H](NC(=O)C[C@H](CCC(=O)O)NC(=O)[C@H](Cc2ccc(C(C)(C)C)cc2)NC(=O)[C@H]2NC(=O)[C@H](CC(C)C)NC(=O)[C@H](C(C)O)NC(=O)[C@H](CC(=O)O)NC(=O)[C@H](CO)NC(=O)[C@H](CCCNC(=N)N)N(C)C(=O)c3ccccc3CSC2(C)C)C(=O)O)C(=O)O)NC1=O (stereo partly drawn) [Compound A, ((2-Benzyl)-(N-Me-R)-Ser-Asp-Thr-Leu-Pen-(Phe(4-tBlu))-(β-homo-Glu)-(D-Lys)-OH)2 (SEQ ID NO: 5) and linker-DIG diglycolic acid] (I: [NMeR]SD[Thr(3ξ)]L[Pen][Phe(4-tBu)][β3hE][dK]-OH / II: [NMeR]SD[Thr(3ξ)]L[Pen][Phe(4-tBu)][β3hE][dK]-OH; linker I:9-II:9 via Diglycolyl; linker I:N-I:6, II:N-II:6 via X1)
- Average RE (%) ([1]; 100 mg Fed once daily, Day 1): −12.3 ± 6.6%
- Average RO (%) ([1]; 100 mg Fed once daily, Day 1): 30.0 ± 7.7%
- REmax (%) ([1]; 100 mg Fed once daily, Day 1): −17.4 ± 7.5%
- ROmax (%) ([1]; 100 mg Fed once daily, Day 1): 46.8 ± 11.2%
- Tmax for RE ([1]; 100 mg Fed once daily, Day 1): 14.0 ± 4.2 h
- Tmax for RO ([1]; 100 mg Fed once daily, Day 1): 6.0 ± 3.7 h
- Average RE (%) ([1]; 100 mg Fed once daily, Day 14): −23.8 ± 6.9%
- Average RO (%) ([1]; 100 mg Fed once daily, Day 14): 40.5 ± 7.5%
- REmax (%) ([1]; 100 mg Fed once daily, Day 14): −29.1 ± 7.2%
- ROmax (%) ([1]; 100 mg Fed once daily, Day 14): 55.5 ± 8.82%
- Tmax for RE ([1]; 100 mg Fed once daily, Day 14): 12.0 ± 0 h
- Tmax for RO ([1]; 100 mg Fed once daily, Day 14): 5.0 ± 2.8 h
- Average RE (%) [1, 3]: −25.1 ± 4.4%
- Average RO (%) [1, 3]: 53.9 ± 6.5%
- REmax (%) [1, 3]: −33.1 ± 5.2%
- ROmax (%) [1, 3]: 77.8 ± 5.13%
- Tmax for RE [1, 3]: 12.0 ± 0 h
- Tmax for RO [1, 3]: 4.0 ± 0 h
- ROmax (%) ([1]; 300 mg Fasted once daily, Day 1, listed as COMPOUND A): 77.8%
- Average RE (%) [1, 4]: −37.7 ± 5.2%
- Average RO (%) [1, 4]: 61.1 ± 6.0%
- REmax (%) [1, 4]: −41.5 ± 5.9%
- ROmax (%) [1, 4]: 79.7 ± 5.40%
- Tmax for RE [1, 4]: 6.0 ± 3.7 h
- Tmax for RO [1, 4]: 4.0 ± 0 h
- ROmax (%) ([1]; 300 mg Fasted once daily, Day 14, listed as COMPOUND A): 79.7%
- Average RE (%) ([1]; 300 mg Fed once daily, Day 1): −20.1 ± 3.4%
- Average RO (%) ([1]; 300 mg Fed once daily, Day 1): 47.2 ± 7.5%
- REmax (%) ([1]; 300 mg Fed once daily, Day 1): −28.4 ± 4.4%
- ROmax (%) ([1]; 300 mg Fed once daily, Day 1): 70.4 ± 7.39%
- Tmax for RE ([1]; 300 mg Fed once daily, Day 1): 12.0 ± 0 h
- Tmax for RO ([1]; 300 mg Fed once daily, Day 1): 4.0 ± 0 h
- Average RE (%) ([1]; 300 mg Fed once daily, Day 14): −31.7 ± 4.0%
- Average RO (%) ([1]; 300 mg Fed once daily, Day 14): 57.8 ± 3.9%
- REmax (%) ([1]; 300 mg Fed once daily, Day 14): −37.2 ± 4.7%
- ROmax (%) ([1]; 300 mg Fed once daily, Day 14): 78.9 ± 5.89%
- Tmax for RE ([1]; 300 mg Fed once daily, Day 14): 12.0 ± 0 h
- Tmax for RO ([1]; 300 mg Fed once daily, Day 14): 4.0 ± 0 h
- peak percent receptor occupancy ([1]; 300 mg within 30 minutes following a high fat meal): 61.4%
- Average RE (%) ([1]; 450 mg BID, Day 1): −33.4 ± 4.4%
- Average RO (%) ([1]; 450 mg BID, Day 1): 76.4 ± 8.4%
- REmax (%) ([1]; 450 mg BID, Day 1): −42.6 ± 4.6%
- ROmax (%) ([1]; 450 mg BID, Day 1): 86.5% and 86.5 ± 4.11%
- Tmax for RE ([1]; 450 mg BID, Day 1): 19 ± 4.7 h
- Tmax for RO ([1]; 450 mg BID, Day 1): 16 ± 6.2 h
- Average RE (%) ([1]; 450 mg BID, Day 5, N = 7): −44.3 ± 4.2%
- REmax (%) ([1]; 450 mg BID, Day 5, N = 7): −47.3 ± 4.3%
- ROmax (%) ([1]; 450 mg BID, Day 5, N = 7): 91.9% and 91.9 ± 3.42%
- Tmax for RE ([1]; 450 mg BID, Day 5, N = 7): 5.6 ± 5.1 h
- Tmax for RO ([1]; 450 mg BID, Day 5, N = 7): 2.3 ± 1.6 h
- Average RO (%) ([1]; 450 mg BID, Day 5, N = 7, 24-hour AUEC): 85.3% and 85.3 ± 7.3%
- receptor occupancy at 450 mg ([1]; 450 mg twice daily, read-out: trough receptor occupancy): ~79.2%
- Average RE (%) ([1]; 900 mg QD, Day 1): −38.3 ± 4.9%
- Average RO (%) ([1]; 900 mg QD, Day 1): 80.7 ± 6.7%
- REmax (%) ([1]; 900 mg QD, Day 1): −47.3 ± 5.0%
- ROmax (%) ([1]; 900 mg QD, Day 1): 94.5% and 94.5 ± 2.61%
- Tmax for RE ([1]; 900 mg QD, Day 1): 13 ± 1.4 h
- Tmax for RO ([1]; 900 mg QD, Day 1): 5.4 ± 3.9 h
- Average RE (%) ([1]; 900 mg QD, Day 5): −44.6 ± 6.3%
- REmax (%) ([1]; 900 mg QD, Day 5): −50.1 ± 5.3%
- ROmax (%) ([1]; 900 mg QD, Day 5): 94.9% and 94.9 ± 1.97%
- Tmax for RE ([1]; 900 mg QD, Day 5): 11 ± 3.9 h
- Tmax for RO ([1]; 900 mg QD, Day 5): 3.3 ± 6.2 h
- Average RO (%) ([1]; 900 mg QD, Day 5, 24-hour AUEC): 79.2% and 79.2 ± 8.7%
- Average RE (%) [1, 5]: −33.9 ± 3.4%
- Average RO (%) [1, 5]: 77.1 ± 3.7%
- REmax (%) [1, 5]: −43.1 ± 4.0%
- ROmax (%) [1, 5]: 91.3 ± 2.93%
- Tmax for RE [1, 5]: 12.0 ± 0 h
- Tmax for RO [1, 5]: 7.0 ± 4.1 h
- ROmax (%) ([1]; 1000 mg Fasted once daily, Day 1, listed as COMPOUND A): 91.3%
- Average RE (%) [1, 6]: −51.3 ± 3.1%
- Average RO (%) [1, 6]: 81.5 ± 15.5%
- REmax (%) [1, 6]: −57.3 ± 2.9%
- ROmax (%) [1, 6]: 95.6 ± 0.97%
- Tmax for RE [1, 6]: 4.0 ± 0 h
- Tmax for RO [1, 6]: 4.0 ± 0 h
- ROmax (%) ([1]; 1000 mg Fasted once daily, Day 14, listed as COMPOUND A): 95.6%
- mean peak receptor occupancy ([1]; doses of 900 mg): greater than 90%
- trough receptor occupancy ([1]; once-daily 100 mg): approximately 25.4%
- trough receptor occupancy ([1]; once-daily 1000 mg): ~78.6%
- receptor occupancy at trough ([1]; once-daily or twice-daily dosing): greater than 80%
- Average RE (%) ([1]; single dose 100 mg): −21.6 ± 7.1%
- Average RO (%) ([1]; single dose 100 mg): 38.9 ± 12.5%
- ROmax (%) ([1]; single dose 100 mg): 61.8 ± 10.8%
- Tmax for RE ([1]; single dose 100 mg): 11 ± 6.0 h
- Tmax for RO ([1]; single dose 100 mg): 3.8 ± 2.2 h
- REmax (%) ([1]; single dose 100 mg, change from baseline): −28.2 ± 7.97%
- REmax (%) ([1]; single dose 100 mg, change from baseline, listed as COMPOUND A): −28.2%
- ROmax (%) ([1]; single dose 100 mg, listed as COMPOUND A): 61.8%
- Average RE (%) ([1]; single dose 300 mg): −32.4 ± 3.0%
- Average RO (%) ([1]; single dose 300 mg): 64.3 ± 6.6%
- REmax (%) ([1]; single dose 300 mg): −43.6 ± 3.69%
- ROmax (%) ([1]; single dose 300 mg): 83.4 ± 7.92%
- Tmax for RE ([1]; single dose 300 mg): 12 ± 0 h
- Tmax for RO ([1]; single dose 300 mg): 4.6 ± 2.3 h
- ROmax (%) ([1]; single dose 300 mg, listed as COMPOUND A): 83.4%
- Average RE (%) ([1]; single dose 1000 mg): −36.3 ± 2.9%
- Average RO (%) ([1]; single dose 1000 mg): 81.0 ± 3.5%
- REmax (%) ([1]; single dose 1000 mg): −45.4 ± 3.70%
- ROmax (%) ([1]; single dose 1000 mg): 93.6 ± 2.04%
- Tmax for RE ([1]; single dose 1000 mg): 12 ± 0 h
- Tmax for RO ([1]; single dose 1000 mg): 4.1 ± 1.9 h
- Average RE (%) ([1]; single dose 1400 mg): −40.3 ± 6.9%
- Average RO (%) ([1]; single dose 1400 mg): 86.0 ± 6.8%
- REmax (%) ([1]; single dose 1400 mg): −49.0 ± 8.20%
- ROmax (%) ([1]; single dose 1400 mg): 94.8 ± 3.55%
- Tmax for RE ([1]; single dose 1400 mg): 12 ± 0 h
- Tmax for RO ([1]; single dose 1400 mg): 4.6 ± 3.2 h
- REmax (%) [1, 7]: −49.0%
- ROmax (%) [1, 7]: 94.8%
- systemic absorption [2]: < 1%
- Complete Mayo Score, Adapted Mayo Score, and/or Partial Mayo Score vs placebo (450 mg BID or 150 mg BID): statistically significant improvement
- safety of treatment (in vivo): safe
